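Test compounds were applied to cells in 96-well plates for 48 hours at 5 doses. GI50 is the concentration that inhibits growth by half. TGI marks complete inhibition of growth.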
Legend:
Test in all cases: NCI tumour cell line growth inhibition, 48 h
OVCAR-8 ovarian = tested on: OVCAR-8 ovarian
SNB-19 CNS = tested on: SNB-19 CNS
HL-60(TB) leukemia = tested on: HL-60(TB) leukemia
UACC-257 melanoma = tested on: UACC-257 melanoma
CAKI-1 renal = tested on: CAKI-1 renal
HOP-62 NSCLC = tested on: HOP-62 NSCLC
NCI-H23 lung = tested on: NCI-H23 lung
IGROV1 ovarian = tested on: IGROV1 ovarian
SN12C renal = tested on: SN12C renal
MDA-MB-435 = tested on: MDA-MB-435
COLO 205 colon = tested on: COLO 205 colon
T-47D breast = tested on: T-47D breast
BT-549 breast = tested on: BT-549 breast
SW-620 colon = tested on: SW-620 colon
NCI-H522 lung = tested on: NCI-H522 lung
MDA-MB-231 breast = tested on: MDA-MB-231 breast
UO-31 renal = tested on: UO-31 renal
SR leukemia = tested on: SR leukemia
SK-MEL-5 melanoma = tested on: SK-MEL-5 melanoma
PC-3 prostate = tested on: PC-3 prostate
HOP-92 NSCLC = tested on: HOP-92 NSCLC
SNB-75 CNS = tested on: SNB-75 CNS
OVCAR-5 ovarian = tested on: OVCAR-5 ovarian
HT29 colon = tested on: HT29 colon
OVCAR-4 ovarian = tested on: OVCAR-4 ovarian
SK-OV-3 ovarian = tested on: SK-OV-3 ovarian
SF-268 CNS = tested on: SF-268 CNS
U251 CNS = tested on: U251 CNS
DU-145 prostate = tested on: DU-145 prostate
SK-MEL-28 melanoma = tested on: SK-MEL-28 melanoma
786-0 renal = tested on: 786-0 renal
RPMI-8226 leukemia = tested on: RPMI-8226 leukemia
CCRF-CEM leukemia = tested on: CCRF-CEM leukemia
SF-539 CNS = tested on: SF-539 CNS
SK-MEL-2 melanoma = tested on: SK-MEL-2 melanoma
TK-10 renal = tested on: TK-10 renal
A549 NSCLC = tested on: A549 NSCLC
LOX IMVI melanoma = tested on: LOX IMVI melanoma
ACHN renal = tested on: ACHN renal
SF-295 CNS = tested on: SF-295 CNS
HCC-2998 colon = tested on: HCC-2998 colon
RXF 393 renal = tested on: RXF 393 renal
HCT-15 colon = tested on: HCT-15 colon
KM12 colon = tested on: KM12 colon
NCI-H460 lung = tested on: NCI-H460 lung
NCI/ADR-RES ovarian = tested on: NCI/ADR-RES ovarian
MOLT-4 leukemia = tested on: MOLT-4 leukemia
M14 melanoma = tested on: M14 melanoma
HCT-116 colon = tested on: HCT-116 colon
A498 renal = tested on: A498 renal
K-562 leukemia = tested on: K-562 leukemia
EKVX NSCLC = tested on: EKVX NSCLC
UACC-62 melanoma = tested on: UACC-62 melanoma
MALME-3M melanoma = tested on: MALME-3M melanoma

With `CCc1cc(OC(=O)N2CCC(N3CCCCC3)CC2)ccc1Nc1cc(-c2ccc(-n3cccn3)cc2)[nH]n1` as the compound, how does the GI50 (OVCAR-8 ovarian) read?
Its GI50 is 1.8 µM.

What about the TGI (OVCAR-8 ovarian) of the same compound?
The TGI was 3.83 µM.

What about the GI50 (SNB-19 CNS) of the same compound?
The GI50 was 1.95 µM.

And the TGI (SNB-19 CNS)?
The TGI was 4.11 µM.

And the GI50 (HL-60(TB) leukemia)?
The GI50 was 1.71 µM.

And the TGI (HL-60(TB) leukemia)?
Its TGI is 4.52 µM.

What about the GI50 (UACC-257 melanoma) of the same compound?
The GI50 was 1.82 µM.

And the TGI (UACC-257 melanoma)?
The TGI was 3.44 µM.

And the GI50 (CAKI-1 renal)?
The GI50 was 1.55 µM.

And the TGI (CAKI-1 renal)?
Its TGI is 3.45 µM.

And the GI50 (HOP-62 NSCLC)?
The GI50 was 1.84 µM.

And the TGI (HOP-62 NSCLC)?
Its TGI is 3.7 µM.

And the GI50 (NCI-H23 lung)?
The GI50 was 1.82 µM.

What about the TGI (NCI-H23 lung) of the same compound?
The TGI was 3.9 µM.

What about the GI50 (IGROV1 ovarian) of the same compound?
The GI50 was 1.93 µM.

What about the TGI (IGROV1 ovarian) of the same compound?
Its TGI is 4.04 µM.

What about the GI50 (SN12C renal) of the same compound?
Its GI50 is 1.84 µM.

What about the TGI (SN12C renal) of the same compound?
Its TGI is 3.71 µM.

What about the GI50 (MDA-MB-435) of the same compound?
The GI50 was 1.77 µM.

What about the TGI (MDA-MB-435) of the same compound?
Its TGI is 3.34 µM.

What about the GI50 (COLO 205 colon) of the same compound?
The GI50 was 1.79 µM.

What about the TGI (COLO 205 colon) of the same compound?
Its TGI is 3.27 µM.

And the GI50 (T-47D breast)?
The GI50 was 1.61 µM.

And the TGI (T-47D breast)?
The TGI was 3.51 µM.

What about the GI50 (BT-549 breast) of the same compound?
Its GI50 is 1.58 µM.

What about the TGI (BT-549 breast) of the same compound?
The TGI was 2.95 µM.

What about the GI50 (SW-620 colon) of the same compound?
Its GI50 is 1.86 µM.

And the TGI (SW-620 colon)?
Its TGI is 3.51 µM.

What about the GI50 (NCI-H522 lung) of the same compound?
Its GI50 is 1.85 µM.

What about the TGI (NCI-H522 lung) of the same compound?
The TGI was 3.51 µM.

And the GI50 (MDA-MB-231 breast)?
Its GI50 is 1.9 µM.

And the TGI (MDA-MB-231 breast)?
Its TGI is 3.57 µM.

And the GI50 (UO-31 renal)?
The GI50 was 1.56 µM.

And the TGI (UO-31 renal)?
The TGI was 3.6 µM.

What about the GI50 (SR leukemia) of the same compound?
Its GI50 is 1.49 µM.

What about the TGI (SR leukemia) of the same compound?
The TGI was 4.6 µM.

And the GI50 (SK-MEL-5 melanoma)?
The GI50 was 1.72 µM.

What about the TGI (SK-MEL-5 melanoma) of the same compound?
Its TGI is 3.12 µM.

And the GI50 (PC-3 prostate)?
The GI50 was 1.73 µM.

What about the TGI (PC-3 prostate) of the same compound?
The TGI was 3.65 µM.

And the GI50 (HOP-92 NSCLC)?
The GI50 was 1.45 µM.

What about the TGI (HOP-92 NSCLC) of the same compound?
Its TGI is 3.23 µM.

And the GI50 (SNB-75 CNS)?
Its GI50 is 1.66 µM.

What about the TGI (SNB-75 CNS) of the same compound?
The TGI was 4.22 µM.

What about the GI50 (OVCAR-5 ovarian) of the same compound?
The GI50 was 1.83 µM.

What about the TGI (OVCAR-5 ovarian) of the same compound?
The TGI was 4.02 µM.

What about the GI50 (HT29 colon) of the same compound?
Its GI50 is 1.27 µM.

What about the TGI (HT29 colon) of the same compound?
Its TGI is 2.74 µM.

And the GI50 (OVCAR-4 ovarian)?
The GI50 was 2.22 µM.

And the TGI (OVCAR-4 ovarian)?
Its TGI is 5.34 µM.

What about the GI50 (SK-OV-3 ovarian) of the same compound?
The GI50 was 1.93 µM.

What about the TGI (SK-OV-3 ovarian) of the same compound?
The TGI was 3.47 µM.

And the GI50 (SF-268 CNS)?
Its GI50 is 1.82 µM.

What about the TGI (SF-268 CNS) of the same compound?
Its TGI is 3.73 µM.

And the GI50 (U251 CNS)?
The GI50 was 1.58 µM.

And the TGI (U251 CNS)?
Its TGI is 2.99 µM.

And the GI50 (DU-145 prostate)?
Its GI50 is 1.91 µM.

What about the TGI (DU-145 prostate) of the same compound?
Its TGI is 4.17 µM.

And the GI50 (SK-MEL-28 melanoma)?
The GI50 was 1.73 µM.

What about the TGI (SK-MEL-28 melanoma) of the same compound?
The TGI was 3.27 µM.

And the GI50 (786-0 renal)?
The GI50 was 1.55 µM.

What about the TGI (786-0 renal) of the same compound?
Its TGI is 2.98 µM.

What about the GI50 (RPMI-8226 leukemia) of the same compound?
The GI50 was 2.03 µM.

What about the TGI (RPMI-8226 leukemia) of the same compound?
The TGI was 5.62 µM.

What about the GI50 (CCRF-CEM leukemia) of the same compound?
Its GI50 is 2.95 µM.

And the TGI (CCRF-CEM leukemia)?
The TGI was 21.6 µM.

What about the GI50 (SF-539 CNS) of the same compound?
The GI50 was 1.73 µM.

What about the TGI (SF-539 CNS) of the same compound?
The TGI was 3.27 µM.

What about the GI50 (SK-MEL-2 melanoma) of the same compound?
The GI50 was 1.83 µM.

What about the TGI (SK-MEL-2 melanoma) of the same compound?
The TGI was 3.33 µM.

What about the GI50 (TK-10 renal) of the same compound?
The GI50 was 1.41 µM.

And the TGI (TK-10 renal)?
Its TGI is 3.45 µM.

What about the GI50 (A549 NSCLC) of the same compound?
Its GI50 is 1.21 µM.

And the TGI (A549 NSCLC)?
The TGI was 2.66 µM.

What about the GI50 (LOX IMVI melanoma) of the same compound?
The GI50 was 1.66 µM.

And the TGI (LOX IMVI melanoma)?
The TGI was 3.17 µM.

And the GI50 (ACHN renal)?
The GI50 was 1.72 µM.

What about the TGI (ACHN renal) of the same compound?
The TGI was 3.1 µM.

And the GI50 (SF-295 CNS)?
Its GI50 is 1.66 µM.

What about the TGI (SF-295 CNS) of the same compound?
Its TGI is 3.2 µM.

And the GI50 (HCC-2998 colon)?
The GI50 was 1.75 µM.

And the TGI (HCC-2998 colon)?
The TGI was 3.33 µM.

And the GI50 (RXF 393 renal)?
Its GI50 is 1.45 µM.

And the TGI (RXF 393 renal)?
The TGI was 2.89 µM.

And the GI50 (HCT-15 colon)?
The GI50 was 1.36 µM.

What about the TGI (HCT-15 colon) of the same compound?
The TGI was 2.83 µM.

And the GI50 (KM12 colon)?
The GI50 was 2.11 µM.

What about the TGI (KM12 colon) of the same compound?
Its TGI is 4.29 µM.

And the GI50 (NCI-H460 lung)?
The GI50 was 1.58 µM.

What about the TGI (NCI-H460 lung) of the same compound?
The TGI was 3.16 µM.

What about the GI50 (NCI/ADR-RES ovarian) of the same compound?
Its GI50 is 2.94 µM.

What about the TGI (NCI/ADR-RES ovarian) of the same compound?
The TGI was 9.89 µM.

What about the GI50 (MOLT-4 leukemia) of the same compound?
Its GI50 is 2.16 µM.

What about the TGI (MOLT-4 leukemia) of the same compound?
Its TGI is 11 µM.

What about the GI50 (M14 melanoma) of the same compound?
The GI50 was 1.83 µM.

What about the TGI (M14 melanoma) of the same compound?
The TGI was 3.3 µM.

What about the GI50 (HCT-116 colon) of the same compound?
The GI50 was 1.45 µM.

What about the TGI (HCT-116 colon) of the same compound?
The TGI was 2.83 µM.

And the GI50 (A498 renal)?
Its GI50 is 1.4 µM.

And the TGI (A498 renal)?
Its TGI is 2.81 µM.

And the GI50 (K-562 leukemia)?
The GI50 was 1.13 µM.

What about the TGI (K-562 leukemia) of the same compound?
Its TGI is 5.07 µM.

And the GI50 (EKVX NSCLC)?
Its GI50 is 2.16 µM.

What about the TGI (EKVX NSCLC) of the same compound?
The TGI was 5.86 µM.

What about the GI50 (UACC-62 melanoma) of the same compound?
Its GI50 is 1.92 µM.

What about the TGI (UACC-62 melanoma) of the same compound?
The TGI was 3.96 µM.

What about the GI50 (MALME-3M melanoma) of the same compound?
The GI50 was 1.67 µM.

What about the TGI (MALME-3M melanoma) of the same compound?
The TGI was 3.21 µM.
